Measurements published in patent EP0880540B1, “17-BETA-CYCLOPROPYL(AMINO/OXY) 4-AZA STEROIDS AS ACTIVE INHIBITORS OF TESTOSTERONE 5-ALPHA-REDUCTASE AND C17-20-LYASE” (Aventis Pharmaceuticals Inc., priority 1996, dated 1997).

How the values were obtained:
[1] = target: T1, cynomolgus monkey C17,20 lyase (Macaca fascicularis, UniProt Q2XVA1); experiment: In vitro C17,20 lyase assay, testicular microsomes; type: biochemical; conditions: mean of duplicates
T1 construct: microsomal preparations of the enzyme from testicular tissue; from tissue; host or cells: cynomolgus monkey testes, microsomes
T1 sequence (Q2XVA1 1-508): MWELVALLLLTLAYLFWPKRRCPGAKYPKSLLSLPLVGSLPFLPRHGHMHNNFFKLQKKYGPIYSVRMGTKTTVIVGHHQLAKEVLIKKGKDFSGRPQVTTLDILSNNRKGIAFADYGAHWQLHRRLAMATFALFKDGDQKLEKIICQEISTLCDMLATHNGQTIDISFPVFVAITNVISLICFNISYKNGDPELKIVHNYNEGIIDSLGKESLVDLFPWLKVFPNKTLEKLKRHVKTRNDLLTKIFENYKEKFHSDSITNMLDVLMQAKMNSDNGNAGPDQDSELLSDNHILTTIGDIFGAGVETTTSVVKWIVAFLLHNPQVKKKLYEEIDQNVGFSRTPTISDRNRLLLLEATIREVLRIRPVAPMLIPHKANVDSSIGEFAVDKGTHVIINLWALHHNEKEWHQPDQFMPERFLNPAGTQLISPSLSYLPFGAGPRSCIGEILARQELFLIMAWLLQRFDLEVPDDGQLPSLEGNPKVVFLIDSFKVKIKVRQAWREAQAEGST
Method: In vitro C17,20 lyase assays: Compounds were tested for inhibition of cynomolgus monkey C17,20 lyase in vitro using microsomal preparations of the enzyme from testicular tissue. Testes were removed from anesthetized animals and flash frozen in liquid nitrogen. Microsomes were isolated as described in Schatzman et al., Anal. Biochem. 175, 219-226 (1988). The compound to be tested was dissolved in dimethyl sulfoxide and diluted in 0.05 M potassium phosphate buffer, pH 7.4, to give the desired concentrations of test compound, in an amount which contributed 0.1% v/v DMSO to the total assay volume. Assays contained 0.05 M potassium phosphate buffer, pH 7.4, an NADPH regenerating system (1 mM NADPH, 5 mM glucose-6-phosphate, 1 IU/mL glucose-6-phosphate dehydrogenase), test compound, substrate and microsomal protein in a total volume of 0.2 mL. Control assays contained all components, including dimethyl sulfoxide, but not test ccmpound. All assays were performed in duplicate. The test compound was incubated with 20 to 62 µg/mL microsomal protein, buffer, and the NADPH regenerating system described above at 34°C for 0 or 40 minutes. Aliquots of 180 µL were then removed and assayed for enzyme activity by addition to 7-[^3H]-17α-hydroxypregnenolone (11.2 mCi/mmole; 0.2 µCi per assay) plus unlabeled 17α-hydroxypregnenolone dissolved in DMSO, contributing 2.5% v/v to the final assay mix, and phosphate buffer to give a total substrate concentration of 0.05 µM (=Km) per assay and subsequent incubation at 34°C for 6 minutes. Each assay was terminated by addition of 5 mL of chloroform:methanol (2:1). Carrier steroids representing substrates and produces (17α-hydroxypregnenolone, dehydroepiandrosterone, and androst-5-ene-3β,17β-diol) and 0.8 mL of distilled, deionized water were also added at this time. The steroids were extracted by the method of Moore and Wilson (Methods in Enzymol., eds. O. Malley, B.W. and Hardman, J.G. 36, 1975, pp. 466-474). The organic phase containing the steroids was evaporated using nitrogen gas, the residues dissolved in 18% tetrahydrofuran (v/v) in hexane, and the steroids were separated by HPLC on a Si60 (5 µm) column (250 x 4 mm) using a gradient of 18-22% tetrahydrofuran (v/v) in hexane. Radioactivity in the steroid peaks was measured using a Radiomatic® Model ES or Model A515 Flo-One® detector.
The enzyme activity for each assay was calculated from the percent conversion of substrate to products, and the results were expressed as percent inhibition of control. The following results were obtained, wherein the values indicated are the mean of duplicate determinations: Table 1: […]

PC-82 Human Tumor = experiment: PC-82 human tumor growth in nude mice; type: in vivo, male nude mice; conditions: MDL 103432 and MDL 105831 50 mg/kg B.I.D., MDL 15910 15 mg/kg B.I.D., per os; for Tumor Growth in PC-82 Human Tumor in Male Nude Mice, Day 7 / Tumor Growth in PC-82 Human Tumor in Male Nude Mice, Day 15 / Tumor Growth in PC-82 Human Tumor in Male Nude Mice, Day 21 / Tumor Growth in PC-82 Human Tumor in Male Nude Mice, Day 28 / Tumor Growth in PC-82 Human Tumor in Male Nude Mice, Day 35 / Tumor Growth in PC-82 Human Tumor in Male Nude Mice, Day -4: corrected group mean; for Tumor Growth in PC-82 Human Tumor in Male Nude Mice, Day -4: Day -4 (before treatment); for Δv/Δt (day 35-day 7): average tumor growth over 28 days from corrected group means
From the text: As described in van Steenbrugge, G.J. et al., J. Urol 131: 812-817 (1984) van Steenbrugge G.J. et al., The Prostate 11: 195-210 (1987) and Redding, T.W. et al., Cancer Research 52, 2538-2544 (1992), male nude mice (Hsd:athymic, Nude-nu) were obtained from Harlan Sprague Dawley. Mice were housed in sterilized micro-isolators and fed autoclaved ABLE® rodent chow (Purina Mills Inc., St. Louis, MO) and deionized water, adlibitum. Tumor-donating mice were first anesthetized using sodium pentobarbital and then sacrificed by cervical dislocation. The tumor was subsequently excised and placed in a petri dish containing ice-cold Hanks balanced salt solution. Tumors were cut into 2-3 mm cubes for implantation. Recipient animals were first anesthetized with 50 mg/kg pentobarbital, then implanted, by use of a trocar, with tumor fragments (one per mouse) in the dorsal area. Animals were separated into two control groups, one with vehicle alone and the other castrated, and the treatment groups, where n is the number of animals in each group.
Animals were selected for treatment groups based on tumor size. Each test compound was prepared as a solution or suspension in a lecithin vehicle (L-α-phosphatidylcholine type XV-E) containing methylparaben and propylparaben at a dose volume of 10 cc/kg. Animals were treated for 42 days by oral gavage (per os) seven days per week. Twenty-four hours after the last treatment the animals were euthenized by CO2 and tumors were removed and weighed. During the study period, mice were weighed and palpated weekly for tumors. In Table 5, average tumor growth is determined from the corrected group means over a 28 day period after treatment was started. […] The following animal data was deleted before computation of the corrected mean data in Table 5, Fig. 1: animals 4 and 44; Fig. 2: animals 10, 38 and 42; Fig. 3: Animal 39; Fig. 4: Animals 8, 9 and 49; Fig. 5: Animals 37 and 40 and 41.
Table 5 illustrates the average tumor growth in animals treated with 4-aza-17β-(cyclopropyloxy)-5α-androstan-3-one (MDL 103432; 50 mg/kg B.I.D.) 4-aza-17β-(cyclopropylamino)-androst-5(6)-en-3-one (MDL 105831; 50 mg/kg B.I.D.) and flutamide (MDL 15,910; 15 mg/kg B.I.D.), a known androgen receptor antagonist. The average growth rate of each tested compound relative to the vehicle and castrated controls is consistent with the in vivo inhibition of androgens.

CC12CCC3C(CC[C@H]4NC(=O)CCC34C)C1CC[C@@H]2OC1CC1 (stereo partly drawn) [MDL 103,432, 17β-Cyclopropyloxy-4-aza-5α-androstan-3-one]
inhibition at 0.1 µM ([1]; preincubation 0 min): 23.4%
inhibition at 0.1 µM ([1]; preincubation 40 min): 20.2%
inhibition at 1 µM ([1]; preincubation 0 min): 33%
inhibition at 1 µM ([1]; preincubation 40 min): 54.2%
inhibition at 10 µM ([1]; preincubation 0 min): 68.3%
inhibition at 10 µM ([1]; preincubation 40 min): 80.2%
Tumor Growth in PC-82 Human Tumor in Male Nude Mice, Day 7 (PC-82 Human Tumor): 180.2 mm^3
Tumor Growth in PC-82 Human Tumor in Male Nude Mice, Day 15 (PC-82 Human Tumor): 220,2 mm^3
Tumor Growth in PC-82 Human Tumor in Male Nude Mice, Day 21 (PC-82 Human Tumor): 288.2 mm^3
Tumor Growth in PC-82 Human Tumor in Male Nude Mice, Day 28 (PC-82 Human Tumor): 385.9 mm^3
Tumor Growth in PC-82 Human Tumor in Male Nude Mice, Day 35 (PC-82 Human Tumor): 427.4 mm^3
Tumor Growth in PC-82 Human Tumor in Male Nude Mice, Day -4 (PC-82 Human Tumor): 122.2 mm^3
Δv/Δt (day 35-day 7) (PC-82 Human Tumor): 8.83 mm^3/day

C[C@]12CC[C@H]3[C@@H](CC=C4NC(=O)CC[C@@]43C)[C@@H]1CC[C@@H]2NC1CC1 [MDL 105,831, 17β-Cyclopropylamino-4-aza-androst-5-en-3-one]
inhibition at 0.1 µM ([1]; preincubation 0 min): 11.4%
inhibition at 0.1 µM ([1]; preincubation 40 min): 24.6%
inhibition at 1 µM ([1]; preincubation 0 min): 26%
inhibition at 1 µM ([1]; preincubation 40 min): 53.8%
inhibition at 10 µM ([1]; preincubation 0 min): 69.6%
inhibition at 10 µM ([1]; preincubation 40 min): 100%
Tumor Growth in PC-82 Human Tumor in Male Nude Mice, Day 7 (PC-82 Human Tumor): 188.3 mm^3
Tumor Growth in PC-82 Human Tumor in Male Nude Mice, Day 15 (PC-82 Human Tumor): 254.3 mm^3
Tumor Growth in PC-82 Human Tumor in Male Nude Mice, Day 21 (PC-82 Human Tumor): 304.3 mm^3
Tumor Growth in PC-82 Human Tumor in Male Nude Mice, Day 28 (PC-82 Human Tumor): 530.7 mm^3
Tumor Growth in PC-82 Human Tumor in Male Nude Mice, Day 35 (PC-82 Human Tumor): 531.1 mm^3
Tumor Growth in PC-82 Human Tumor in Male Nude Mice, Day -4 (PC-82 Human Tumor): 124.9 mm^3
Δv/Δt (day 35-day 7) (PC-82 Human Tumor): 12.24 mm^3/day
